These are literature values, as cited in patent publication US8048918B2, “Treatment of hyperproliferative diseases” (Vampex Limited, priority 2000, dated 2011).

The target in one data set is retinol dehydrogenase. The settings on record: Boerman and Napoli, Biochemistry 34:7027-37, 1995; cited from earlier work.
For another data set, the target named is T1, RalDHII (Rattus norvegicus, UniProt Q63639).
T1 sequence (Q63639 1-518): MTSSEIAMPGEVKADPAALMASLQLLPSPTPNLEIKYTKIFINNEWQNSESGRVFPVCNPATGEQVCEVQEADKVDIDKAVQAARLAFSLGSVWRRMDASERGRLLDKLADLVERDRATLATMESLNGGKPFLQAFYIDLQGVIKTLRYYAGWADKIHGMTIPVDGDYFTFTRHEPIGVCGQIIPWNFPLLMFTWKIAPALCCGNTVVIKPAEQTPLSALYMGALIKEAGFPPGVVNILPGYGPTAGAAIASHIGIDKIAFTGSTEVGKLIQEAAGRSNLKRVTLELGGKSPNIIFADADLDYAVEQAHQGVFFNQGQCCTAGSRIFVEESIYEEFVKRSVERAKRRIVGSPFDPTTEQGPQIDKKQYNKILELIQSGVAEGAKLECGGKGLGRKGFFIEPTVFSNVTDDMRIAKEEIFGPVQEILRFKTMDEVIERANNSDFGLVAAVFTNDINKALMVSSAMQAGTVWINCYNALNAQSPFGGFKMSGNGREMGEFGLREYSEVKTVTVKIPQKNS
The note with it: Penzes et al. 1997; Chen and Juchau 1997; cited from earlier work.

Molecules are shown by their SMILES.

`CC1(C)[C@@H](OC(=O)CCC(=O)O)CC[C@]2(C)[C@H]3C(=O)C=C4[C@@H]5C[C@@](C)(C(=O)O)CC[C@]5(C)CC[C@@]4(C)[C@]3(C)CC[C@@H]12` [Carbenoxolone]: the IC50 (commonly the midpoint of a concentration-inhibition curve) on retinol dehydrogenase was 55 µM.

Regarding `CC(C)=CCCC(C)=CC=O` [Citral, 3,7-dimethyl-2,6-octadienal], on RalDHII, the IC50 was 12 µM.
